From ChEMBL document CHEMBL1138822, “Bis-quinolinium cyclophanes: toward a pharmacophore model for the blockade of apamin-sensitive SKCa channels in sympathetic neurons” (Bioorg Med Chem Lett, 2004)

These compounds were tested against Small conductance calcium-activated potassium channel (Rattus norvegicus, UniProt P70604+P70606+P70605) (assay: Inhibition of after hyperpolarization (AHP) of cultured rat sympathetic neurons as SKCa channel blocking activity). Settings: sympathetic neuron.
Type: functional, cell-based
Work on c1ccc2c(c1)c1cc[n+]2CCCC[n+]2ccc(c3ccccc32)NCCCCN1 yielded an IC50 of 40 nM. Work on [I-].[I-].c1ccc2c(c1)c1cc[n+]2CCCCCCCC[n+]2ccc(c3ccccc32)NCCCCCCCCN1 yielded an IC50 of 190 nM. c1ccc2c(c1)c1cc[n+]2CCCCC[n+]2ccc(c3ccccc32)NCCCCCCN1 gave an IC50 of 12 nM. Work on c1cc2cc(c1)C[n+]1ccc(c3ccccc31)NCCCNc1cc[n+](c3ccccc13)C2 yielded an IC50 of 25 nM. Work on c1cc2cc(c1)C[n+]1ccc(c3ccccc31)NCCCCCNc1cc[n+](c3ccccc13)C2 yielded an IC50 of 31 nM. With c1ccc2c(c1)c1cc[n+]2CCCC[n+]2ccc(c3ccccc32)NCCCCCN1 the IC50 was 15 nM. c1ccc2c(c1)c1cc[n+]2CCCCC[n+]2ccc(c3ccccc32)NCCCCN1 showed an IC50 of 9 nM. c1ccc2c(c1)c1cc[n+]2CCCCCC[n+]2ccc(c3ccccc32)NCCCCCN1 was tested, and the IC50 was 16 nM. Compound c1ccc2c(c1)c1cc[n+]2CCCCC[n+]2ccc(c3ccccc32)NCCCN1 has an IC50 of 30 nM. For c1ccc2c(c1)c1cc[n+]2CCCCCCCCCC[n+]2ccc(c3ccccc32)NCCCCCCCCCCN1, the IC50 was 260 nM. Compound c1ccc2c(c1)c1cc[n+]2CCCCCC[n+]2ccc(c3ccccc32)NCc2ccc(cc2)CN1 has an IC50 of 65 nM. c1ccc2c(c1)c1cc[n+]2CCCCCC[n+]2ccc(c3ccccc32)NCCCCCCN1 was tested, and the IC50 was 60 nM. c1ccc2c(c1)c1cc[n+]2CCCCC[n+]2ccc(c3ccccc32)NCc2ccc(cc2)CN1 was tested, and the IC50 was 60 nM. Work on c1cc2cc(c1)C[n+]1ccc(c3ccccc31)NCCCCCCNc1cc[n+](c3ccccc13)C2 yielded an IC50 of 35 nM. [I-].[I-].c1ccc2c(c1)c1cc[n+]2CCCCC[n+]2ccc(c3ccccc32)NCCCCCN1 showed an IC50 of 2 nM. c1ccc2c(c1)c1cc[n+]2CCC[n+]2ccc(c3ccccc32)NCc2ccc(cc2)CN1 gave an IC50 of 150 nM. In the case of c1ccc2c(c1)c1cc[n+]2CCC[n+]2ccc(c3ccccc32)NCCCN1 (stereo in doubt; 2l), the IC50 is reported as 630 nM. c1ccc2c(c1)c1cc[n+]2CCC[n+]2ccc(c3ccccc32)NCCCN1 (stereo in doubt; 2m) gave an IC50 of 380 nM. Cc1cc(N)c2ccccc2[n+]1CCCCCCCCCC[n+]1c(C)cc(N)c2ccccc21.[Cl-].[Cl-] [DEQUALINIUM CHLORIDE] showed an IC50 of 900 nM.
